Paper PMC11477209, “Toxicological Evaluation of Kaempferol and Linearolactone as Treatments for Amoebic Liver Abscess Development in Mesocricetus auratus” (International Journal of Molecular Sciences, 2024)
Converted amounts (≈) assume the structure as drawn.

Key:
[1] = in vivo
Procedure: After blood samples were obtained, the hamsters were sacrificed with a lethal dose of sodium pentobarbital, followed by a cervical fracture. They were mounted on a dissecting board for the necropsy. A complete mid-laparotomy was performed to remove the lungs, spleen, heart, liver, and kidneys. An excisional biopsy was performed to recover the ALA lesions for morphometric analysis. The organs and ALA lesions were rinsed with 1× PBS, weighed, and adherent tissue was removed. […] Later, the inclusion protocol was performed to obtain histological sections (3 μm thick) with a rotatory microtome (RM2125-RTS, Leica; Wetzlar, Germany). Tissue slices were stained with hematoxylin-eosin (Merck; Rahway, NJ, USA), mounted on coverslips with Entellan^TM-New (Merck; Rahway, NJ, USA), and observed with optical microscopy (Eclipse 80i, Nikon; Tokio, Japan).

[2] = Paraclinical analysis (serum biochemistry, hematic biometry) in ALA hamsters; assay type: in vivo, Mesocricetus auratus; design: BUN: unit not given here
Procedure: Serum was obtained by centrifugation at 3500 rpm and frozen at −70 °C until analysis. Hematic biometry was performed in a hematology autoanalyzer system (BC-2300, Mindray; Shenzhen, China), and biochemical parameters were made on an automatic medical system (Prestige 24i, Tokyo Boeki; Kanagawa, Japan).

[3] = tested on: E. histolytica trophozoites; conditions: 48 h; ref [12],[13]; read-out: IC50 E. histolytica trophozoites (antiproliferative activity); cited from earlier work
[4] = tested on: E. histolytica trophozoites (virulent HM-1 strain); test: microbe, parasite or virus in culture; conditions: Entamoeba histolytica, 48 h, read-out: IC50 HM-1, 48 h, flow cytometry
[5] = tested on: E. histolytica trophozoites (virulent HM-1 strain); conditions: 48 h
CHO-K1 cells = test: MTT cytotoxicity assay; assay type: cell-based, Chinese hamster; conditions: 24 h, MTT
[6] = blood, ALA hamsters, i.p. 4 days
[7] = serum, ALA hamsters, i.p. 4 days
[8] = MTZ 0.16, KP 31.6, LL 15.6 μg/mL

What does the source list for `C[C@]12C[C@H](c3ccoc3)OC(=O)[C@H]1CCC13COC(=O)C1=CC=C[C@H]32` (stereo partly drawn) [LL, (4S,7R,9R,10S)-7-(furan-3-yl)-9-methyl-6,16-dioxatetracyclo[8.7.0.01,14.04,9]heptadeca-11,13-diene-5,15-dione]?
Heart largest diameter [1]: 1.1 ± 0.07 cm; Heart weight [1]: 0.38 ± 0.08 g; Kidneys largest diameter [1]: 1.1 ± 0.08 cm; Kidneys weight [1]: 0.49 ± 0.07 g; Liver largest diameter [1]: 3.94 ± 0.16 cm; Liver weight [1]: 5.5 ± 0.9 g; Lungs largest diameter [1]: 2.4 ± 0.1 cm; Lungs weight [1]: 0.74 ± 0.06 g; Spleen largest diameter [1]: 3.4 ± 0.4 cm; Spleen weight [1]: 0.26 ± 0.05 g; AL/GGT ratio ([2]; ALA prognosis ratio): 0.23 ± 0.038; Erythrocytes [2, 6]: 6.7 ± 0.4 x10 6/mm3; Hematocrit [2, 6]: 45.4 ± 2.9%; Hemoglobin [2, 6]: 16 ± 0.8 g/dL; Leukocytes [2, 6]: 7.1 ± 1.8 x100/mm3; MCH [2, 6]: 24 ± 0.3 pg; MCHC [2, 6]: 35 ± 0.9 g/dL; MCV [2, 6]: 68 ± 2.2 fL; MPV [2, 6]: 7.7 ± 0.5 fL; PCT [2, 6]: 0.2 ± 0.0%; PDW [2, 6]: 9.4 ± 0.3 fL; Platelets [2, 6]: 303 ± 31 x106/μL; RDW-CV [2, 6]: 14.7 ± 0.6 fL; RDW-SD [2, 6]: 40 ± 2.3 fL; TB/AL ratio ([2]; drug toxicity ratio): 0.22 ± 0.005; neutrophil/lymphocyte ratio ([2]; hematic ratio): 1.66 ± 1.26; BUN/CR ratio ([2]; kidney damage ratio): 31.6 ± 9.8; urea/CR ratio ([2]; kidney damage ratio): 73.1 ± 26; ALP/TB ratio ([2]; liver injury ratio): 10.85 ± 1.28; ALT/ALP ratio ([2]; liver injury ratio): 0.25 ± 0.05; AST/ALT ratio (De Ritis ratio) ([2]; liver injury ratio): > 1; Band neutrophils ([2]; manual differential analysis): 0%; Basophils ([2]; manual differential analysis): 0%; Eosinophils ([2]; manual differential analysis): 0%; Immature forms ([2]; manual differential analysis): 0%; Lymphocytes ([2]; manual differential analysis): 44 ± 21%; Monocytes ([2]; manual differential analysis): 0%; Segmented neutrophils ([2]; manual differential analysis): 56 ± 21%; ALT (GPT) [2, 7]: 89 ± 16 U/L; AST (GOT) [2, 7]: 163 ± 22 U/L; Albumin [2, 7]: 1.7 ± 0.1 g/dL; Alkaline phosphatase [2, 7]: 355 ± 9.5 U/L; BUN [2, 7]: 16.1 ± 1.5; Cholesterol [2, 7]: 105 ± 24 mg/dL; Creatinine [2, 7]: 0.54 ± 0.2 mg/dL; Direct bilirubin [2, 7]: 0.26 ± 0.04 mg/dL; GGT [2, 7]: 7.5 ± 2.1 U/L; Glucose [2, 7]: 123 ± 20 mg/dL; Indirect bilirubin [2, 7]: 0.12 ± 0.0 mg/dL; Total bilirubin [2, 7]: 0.37 ± 0.04 mg/dL; Total protein [2, 7]: 5.3 ± 0.3 g/dL; Triglycerides [2, 7]: 132 ± 8.7 mg/dL; Urea [2, 7]: 37 ± 6.01 mg/dL; IC50 [3]: 22.9 µM; IC50 [4]: 7.8 µg/mL (≈ 22.9 µM); biological activity symbol on IC50 HM-1 [5]: +; IC50 HM-1 ([5]; flow cytometry): < 7.8 µg/mL; apoptotic trophozoites [5, 8]: 4.3%; necrotic trophozoites [5, 8]: 90.1%; decrease of size and granularity of the cell population ([5]; MTZ 0.16, KP 31.6, LL 15.6 μg/mL, vs Vh): 66%; biological activity symbol on IC50 CHO-K1 (CHO-K1 cells): -; IC50 (CHO-K1 cells; Cricetulus griseus, CHO-K1, read-out: IC50 CHO-K1): 300 µg/mL (≈ 881 µM)
